{"source": "patent US20090012179A1", "about": "“Use of Tyrphostins to Stimulate Neurite Outgrowth” (priority 2004, published 2009)", "key": {"ERK [1]": {"tested_on": "ERK", "test": "ERK activation in NS20Y neuroblastoma cells, immunoblotting for dually phosphorylated ERK", "format": "cell-based, mouse", "details": "dually phosphorylated ERK by immunoblotting"}, "ERK2 (p42)": {"tested_on": "ERK2 (p42)", "test": "ERK2 (p42) activation in NS20Y cells", "format": "cell-based, mouse", "experimental": "Cell stimulation, immunoblotting, and immunoprecipitation: Cells or neurons are grown in 6-well or 12-well plates to 80-90% confluence. The cells are starved in serum-free DMEM overnight, and then incubated with receptor agonists at 37° C. for the indicated durations. In some experiments, signaling inhibitors are added 45 minutes before simulation. Incubation is terminated by placing the tissue culture cluster on ice and rapidly aspirating the medium, followed by the addition of ice-cold RIPA^+ buffer (50 mM Tris-HCl, pH 7.5, 150 mM NaCl, 1% NP-40, 0.5% deoxycholate, 0.1% SDS, 1 mM NaVO3, and protease inhibitor (Calbiochem, San Diego, Calif.)) and incubation for 15 minutes with shaking. After centrifugation (14,000×g at 4° C. for 15 minutes), the supernatant is collected and the protein concentration is measured and adjusted using RIPA^+ buffer. Samples (30 μl) with equal amounts of protein mixed with Laemmli loading buffer are denatured at 70° C. for 10 minutes and separated by SDS-PAGE. […] The proteins are transferred to PVDF membrane (Millipore), detected with the primary antibodies (including anti-active ERK; anti-p-Tyr clone 4G10, Upstate; anti-TH; anti-DAT, sigma, anti-β-tubulin, etc.) and visualized with the SuperSignal™ West Pico chemiluminescent kit (Pierce Biotechnology, Rockford, Ill.). The intensity of bands is quantified using ImageQuant™ 5.2 (Amersham). […]"}, "[2]": {"tested_on": "primary rat SNc neuron cultures", "test": "[3H]Dopamine uptake in primary SNc neuron cultures", "format": "cell-based", "details": "A9 for six days", "experimental": "(§1) Primary cultures of rat embryonic SNc neuron cultures were grown on treated 12-well plates (for dopamine uptake) or coverslips (for neuroprotection) for 10 days as described in the Examples section. In FIG. 6A, the neurons were treated with different concentrations of A9 for 6 days before dopamine uptake was measured. Data=mean±SD (n=3). In FIG. 6B, MPP^+ (25 μM) was added into medium on day 11, while A9 was added either on day 10 (pretreatment) or day 12 (after MPP^+). Half of the medium was changed with fresh A9 on day 14. The neurons were fixed on day 16 and stained for tyrosine hydroxylase (TH, green) and total-ERK (red). Images were captured with fluorescence microscopy at magnification×100.\nDopamine uptake: NS20Y cells or neuron cultures are plated on poly-L-lysine (for NS20Y) or poly-D-lysine (for neuron culture)-coated 24-well plates and grown to confluence. The medium is decanted and cells are prepared for [^3H]dopamine uptake. Cells are incubated in the presence or absence of mazindol (10 μM to determine nonspecific uptake) for at least 10 minutes prior to addition of [^3H]dopamine. The uptake assay (final volume 0.5 ml) is initiated by the addition of 50 nM [^3H]dopamine and 2 μM dopamine in Krebs-HEPES buffer. […] Radioactivity remaining in each well is determined using liquid scintillation spectrometry. […]"}, "[3]": {"tested_on": "primary dopaminergic neuron cultures", "test": "Neuroprotection against MPP+ in primary dopaminergic neuron cultures", "format": "cell-based, rat", "details": "MPP+ 25 μM; A9 added before or after MPP+; TH staining", "experimental": "as §1, with “6B, MPP^+ (25 μM) was added into medium on day 11, while A9 was added either on day 10 (pretreatment) or day 12 (after MPP^+).” left out\nThe dopaminergic neurons that have been cultured on poly-D-lysine treated coverslips or 12-well cell culture plates for 10 days are treated with vehicle or A9 at 1 nM, 10 nM, 100 nM, or 1 μM for 7 days. […] Half of the medium is changed with fresh medium containing A9 at day 4. To test the involvement of ERK and PI3K, inhibitors (including PD98059, SL327, wortmannin, and LY294002) are added with A9. […] The amount of HSV used and the best time to do functional assays is determined. To count the TH-positive neurons, the neurons on coverslips are fixed, stained for both tyrosine hydroxylase (TH) and total-ERK (control) at the end of A9 treatment and imaged with a conventional or confocal fluorescence microscope. […]"}, "SJL mice with EAE": {"tested_on": "SJL mice with EAE", "test": "Axonal damage in SJL mice with EAE, SMI312/SMI32 immunohistochemistry of spinal cord", "format": "in vivo, mouse", "experimental": "A9 (or the vehicle control) was administered orally.\nFollowing treatment, the thoracic spinal cords were fixed in 4% PFA, embodied in paraffin and sectioned for IHC."}, "ERK [4]": {"tested_on": "ERK", "test": "ERK activation in the brain", "format": "in vivo", "details": "observation, no data shown"}, "[5]": {"details": "Golomb et al. 1996; cited from earlier work"}}, "note": "“Also recorded” adds a separate entry of the source."}
{"compound": "CC(C)(C)c1cc(C=C(C#N)C#N)cc(C(C)(C)C)c1O", "note": "[A9, tyrphostin A9]", "values": [{"measurement": "ERK activation", "setting": "ERK [1]", "result": "robust activation of ERK; also recorded: stimulated ERK activation in NS20Y cells in a time (FIG. 2A) and dose (FIG. 2B)-dependent manner; also recorded: induced robust and sustained ERK activation"}, {"measurement": "ERK activation", "setting": "ERK [1]; listed as tyrphostin A9", "result": "stimulated robust and sustained ERK activation in a time and dose-dependent manner"}, {"measurement": "ERK2 (p42) stimulation", "setting": "ERK2 (p42)", "result": "little stimulation on ERK2 (p42); also recorded: little effect on ERK2"}, {"measurement": "Concentration at which maximum dopamine uptake response is reached", "setting": "[2]", "result": 100, "unit": "nM"}, {"measurement": "Dopamine uptake", "setting": "[2]", "result": "increased dopamine uptake in primary rat SNc neuron cultures in a concentration-dependent manner; also recorded: stimulated dopamine uptake increase"}, {"measurement": "Protective effect against neurotoxin MPP+", "setting": "[3]", "result": "robust protective effect; also recorded: neuroprotection against MPP^+"}, {"measurement": "Damaged axons, SMI32 staining", "setting": "SJL mice with EAE; SJL mice with EAE, 1 μg A9 orally", "result": "effectively reduced; also recorded: reduces the presence of damaged axons"}, {"measurement": "Axonal damage in the spinal cord", "setting": "SJL mice with EAE; SJL mice, EAE induced with PLP139-151, 1 μg A9 orally", "result": "reduced the axonal damage"}, {"measurement": "Ability to cross the blood brain barrier", "setting": "SJL mice with EAE; after oral administration, inferred from CNS effect in EAE mice", "result": "has the ability to cross the blood brain barrier"}, {"measurement": "ERK activation in the brain", "setting": "ERK [4]", "result": "can cause ERK activation in the brain"}, {"measurement": "Side effects", "setting": "[5]", "result": "has not been shown to produce obvious side effects"}]}
